According to patent US11931485B2, “Implantable sustained release device and a method of use therefor in the treatment of brain disorders” (priority 2021, dated 2024):
Like-named read-outs stand apart in the source and are kept apart here.

Tests used:
[1] = test system: patients suffering from severe headaches
[2] = test system: trigeminal nerve ganglion function; assay: Intra-arterial lidocaine in the middle meningeal artery territory in patients with refractory trigeminal neuralgia (blink reflex monitoring, clinical outcome); format: in vivo
Text: Trigeminal neuralgia consists of unilateral, brief/paroxysmal, or continuous pain in one or more divisions of the trigeminal nerve. The pain is secondary to hyperactivity or spontaneous impulse generation within the nerves due to extrinsic compression or intrinsic neural dysfunction. In the experiment, the intra-arterial delivery of medication for modulating trigeminal nerve ganglion function in patients with refractory trigeminal neuralgia was examined. […] Clinical outcome assessment included a 10-point numeric rating, 4-point severity grading, and the pain-free time interval pre- and post-treatment.

CCN(CC)CC(=O)Nc1c(C)cccc1C [lidocaine]
self-reported headache intensity (Visual Analog scale) ([1]; first patient, after 5 min of lidocaine injection (40 mg), pre-procedure intensity 10): 5
self-reported headache intensity (Visual Analog scale) ([1]; second patient, after 5 min of lidocaine injection, pre-procedure intensity 7): 4
symptoms at follow-up ([2]; all three patients, 1 month later): returned to baseline severity
facial hyperalgesia ([2]; all three patients, all dermatomes): improvement in facial hyperalgesia
pain severity (10-point numeric rating, 4-point severity grading) ([2]; second and third patients): improvement in pain severity on all scales
pain-free interval ([2]; second patient): 5 days
pain-free interval ([2]; third patient): 3 days
